Test results published in patent US12473295B2, “Substituted straight chain spiro derivatives” (Janssen Pharmaceutica NV, priority 2019, dated 2025).
Structures can show the parent of a compound that is named as a salt.

Target: menin/MLL (terbium chelate-labeled menin, FITC-MBM1 peptide) (Homo sapiens (Human), UniProt O00255)
Assay: Menin/MLL homogenous time-resolved fluorescence (HTRF) assay;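 also: IC50 from percent inhibition of HTRF signal, normalized between wells without competitor and wells with a saturating competitor that displaces FITC-MBM1 from His-tagged menin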
Type: binding
Settings: HTRF-30 min incubation IC50, 30 min incubation

Sequence of menin/MLL (terbium chelate-labeled menin, FITC-MBM1 peptide) (O00255 other isoform, or with tags, fused parts or gaps): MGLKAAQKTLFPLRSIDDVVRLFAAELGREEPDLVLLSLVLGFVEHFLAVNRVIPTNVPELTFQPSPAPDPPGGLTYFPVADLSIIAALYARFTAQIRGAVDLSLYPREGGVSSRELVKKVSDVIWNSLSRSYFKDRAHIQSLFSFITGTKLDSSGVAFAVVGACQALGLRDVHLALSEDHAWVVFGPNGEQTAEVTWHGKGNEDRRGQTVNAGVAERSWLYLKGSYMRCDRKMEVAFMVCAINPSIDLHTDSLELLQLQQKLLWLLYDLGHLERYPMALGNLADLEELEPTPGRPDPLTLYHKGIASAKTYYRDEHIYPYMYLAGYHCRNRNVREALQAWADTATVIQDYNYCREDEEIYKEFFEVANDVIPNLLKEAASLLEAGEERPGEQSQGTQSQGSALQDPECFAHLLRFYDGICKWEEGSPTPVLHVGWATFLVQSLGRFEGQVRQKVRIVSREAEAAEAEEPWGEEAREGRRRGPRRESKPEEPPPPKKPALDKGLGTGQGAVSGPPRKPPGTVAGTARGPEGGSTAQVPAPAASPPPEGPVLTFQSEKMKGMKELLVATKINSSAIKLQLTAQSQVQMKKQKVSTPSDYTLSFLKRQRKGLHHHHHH

SMILES | IC50 [nM]
COCCN(C)CCC[C@@H](C(C)C)N1CC2(CCN(c3ccnnc3Oc3ccc(F)cc3C(=O)N(C(C)C)C(C)C)C2)C1 (single isomer, unassigned) [Compound 89, (*S)-5-fluoro-N,N-isopropyl-2-((4-(2-(6-((2-methoxyethyl)(methyl)amino)-methylhexan-3-yl)-2,6-diazaspiro[3.4]octan-6-yl)pyridazin-3-yl)oxy)benzamide oxalate] | 3.79
COCCNCCC[C@@H](C(C)C)N1CC2(CCN(c3ncnnc3Oc3ccc(F)cc3C(=O)N(C(C)C)C(C)C)C2)C1 (single isomer, unassigned) [Compound 100, (*S)-5-fluoro-N,N-isopropyl-2-((5-(2-(6-((2-methoxyethyl)amino)-2-methylhexan-3-yl)-2,6-diazaspiro[3.4]octan-6-yl)-1,2,4-triazin-6-yl)oxy)benzamide oxalate] | 2.05
CCN(C(=O)c1cc(F)ccc1Oc1nncnc1N1CCC2(C1)CN([C@@H](CCCCN(C)C)C(C)C)C2)C(C)C (single isomer, unassigned) [Compound 212] | 9.45
CCN(C(=O)c1cc(F)ccc1Oc1nncnc1N1CCC2(C1)CN([C@H](C[C@@H](C)CN(C)CCOC)C(C)C)C2)C(C)C (single isomer, unassigned) [Compound 240, N-ethyl-5-fluoro-N-isopropyl-2-((5-(2-((3*R,5*R)-6-((2-methoxyethyl)(methyl)amino)-2,5-dimethylhexan-3-yl)-2,6-diazaspiro[3.4]octan-6-yl)-1,2,4-triazin-6-yl)oxy)benzamide fumarate] | 12.3
CCN(C(=O)c1cc(F)ccc1Oc1nncnc1N1CCC2(C1)CN([C@@H](C[C@H](C)CN(C)CCOC)C(C)C)C2)C(C)C (single isomer, unassigned) [Compound 243, N-ethyl-5-fluoro-N-isopropyl-2-((5-(2-((3*S,5*S)-6-((2-methoxyethyl)(methyl)amino)-2,5-dimethylhexan-3-yl)-2,6-diazaspiro[3.4]octan-6-yl)-1,2,4-triazin-6-yl)oxy)benzamide fumarate] | 7.39
CCN(C(=O)c1cc(F)ccc1Oc1nncnc1N1CCC2(C1)CN([C@@H](C[C@H](O)CN(C)C(C)C)C(C)C)C2)C(C)C (single isomer, unassigned) [Compound 324, N-ethyl-5-fluoro-2-((5-(2-((3*S,5*S)-5-hydroxy-6-(isopropyl(methyl)amino)-2-methylhexan-3-yl)-2,6-diazaspiro[3.4]octan-6-yl)-1,2,4-triazin-6-yl)oxy)-N-isopropylbenzamide fumarate] | 18.4
CCN(C(=O)c1cc(F)ccc1Oc1nncnc1N1CCC2(C1)CN([C@@H](C[C@@H](O)CN(C)C(C)C)C(C)C)C2)C(C)C (single isomer, unassigned) [Compound 326, N-ethyl-5-fluoro-2-((5-(2-((3*S,5*R)-5-hydroxy-6-(isopropyl(methyl)amino)-2-methylhexan-3-yl)-2,6-diazaspiro[3.4]octan-6-yl)-1,2,4-triazin-6-yl)oxy)-N-isopropylbenzamide fumarate] | 18.5
CCN(CC)C[C@@H](O)C[C@@H](C(C)C)N1CC2(CCN(c3ncnnc3Oc3ccc(F)cc3C(=O)N(CC)C(C)C)C2)C1 (single isomer, unassigned) [Compound 335, 2-((5-(2-((3*S,5*S)-6-diethylamino)-5-hydroxy-2-methylhexan-3-yl)-2,6-diazaspiro[3.4]octan-6-yl)-1,2,4-triazin-6-yl)oxy)-N-ethyl-5-fluoro-N-isopropylbenzamide fumarate] | 5.49
CCN(C(=O)c1cc(F)ccc1Oc1nncnc1N1CCC2(C1)CN([C@@H](C[C@H](O)CN(C)CCOC)C(C)C)C2)C(C)C (single isomer, unassigned) [Compound 353, N-ethyl-5-fluoro-2-((5-(2-((3*S,5S)-5-hydroxy-6-((2-methoxyethyl)(methyl)amino)-2-methylhexan-3-yl)-2,6-diazaspiro[3.4]octan-6-yl)-1,2,4-triazin-6-yl)oxy)-N-isopropylbenzamide fumarate] | 4.19
CCN(C(=O)c1cc(F)ccc1Oc1nncnc1N1CCC2(C1)CN([C@@H](C[C@@H](O)CN(C)CCOC)C(C)C)C2)C(C)C (single isomer, unassigned) [Compound 357, N-ethyl-5-fluoro-2-((5-(2-((3*S,5R)-5-hydroxy-6-((2-methoxyethyl)(methyl)amino)-2-methylhexan-3-yl)-2,6-diazaspiro[3.4]octan-6-yl)-1,2,4-triazin-6-yl)oxy)-N-isopropylbenzamide fumarate] | 7.77
CC(C)[C@H](C[C@@H](O)CN(C)C)N1CC2(CCN(c3ncnnc3Oc3ccc(F)cc3C(=O)N(C(C)C)C(C)C)C2)C1 (single isomer, unassigned) [Compound 370, 2-((5-(2-((3*S,5*R)-6-(dimethylamino)-5-hydroxy-2-methylhexan-3-yl)-2,6-diazaspiro[3.4]octan-6-yl)-1,2,4-triazin-6-yl)oxy)-5-fluoro-N,N-diisopropylbenzamide fumarate] | 5.42
CCN(C(=O)c1cc(F)ccc1Oc1nncnc1N1CCC2(C1)CN([C@@H](C[C@@H](CN(C)C)OC)C(C)C)C2)C(C)C (single isomer, unassigned) [Compound 377, 2-((5-(2-((3*S,5*R)-6-(dimethylamino)-5-methoxy-2-methylhexan-3-yl)-2,6-diazaspiro[3.4]octan-6-yl)-1,2,4-triazin-6-yl)oxy)-N-ethyl-5-fluoro-N-isopropylbenzamide fumarate] | 15.4
CCN(C(=O)c1cc(F)ccc1Oc1nncnc1N1CCC2(C1)CN([C@@H](C[C@H](CN(C)C)OC)C(C)C)C2)C(C)C (single isomer, unassigned) [Compound 378, 2-((5-(2-((3*S,5*R)-6-(dimethylamino)-5-methoxy-2-methylhexan-3-yl)-2,6-diazaspiro[3.4]octan-6-yl)-1,2,4-triazin-6-yl)oxy)-N-ethyl-5-fluoro-N-isopropylbenzamide fumarate] | 27.3
CCN(C)C[C@H](C[C@@H](C(C)C)N1CC2(CCN(c3ncnnc3Oc3ccc(F)cc3C(=O)N(CC)C(C)C)C2)C1)OC (single isomer, unassigned) [Compound 379, N-ethyl-2-((5-(2-((3*S,5*S)-6-(ethyl(methyl)amino)-5-methoxy-2-methylhexan-3-yl)-2,6-diazaspiro[3.4]octan-6-yl)-1,2,4-triazin-6-yl)oxy)-5-fluoro-N-isopropylbenzamide] | 14.2
CCN(C)C[C@@H](C[C@@H](C(C)C)N1CC2(CCN(c3ncnnc3Oc3ccc(F)cc3C(=O)N(CC)C(C)C)C2)C1)OC (single isomer, unassigned) [Compound 380, N-ethyl-2-((5-(2-((3*S,5*R)-6-(ethyl(methyl)amino)-5-methoxy-2-methylhexan-3-yl)-2,6-diazaspiro[3.4]octan-6-yl)-1,2,4-triazin-6-yl)oxy)-5-fluoro-N-isopropylbenzamide] | 40.5
CCCN(C)C[C@@H](O)C[C@@H](C(C)C)N1CC2(CCN(c3ncnnc3Oc3ccc(F)cc3C(=O)N(CC)C(C)C)C2)C1 (single isomer, unassigned) [Compound 387, N-ethyl-5-fluoro-2-((5-(2-((3*S,5*S)-5-hydroxy-2-methyl-6-(methyl(propyl)amino)hexan-3-yl)-2,6-diazaspiro[3.4]octan-6-yl)-1,2,4-triazin-6-yl)oxy)-N-isopropylbenzamide fumarate] | 9.52
